Earlier results in patent US20030036565A1, “Cancer chemopreventive agents” (WISCONSIN ALUMNI RESEARCH FOUNDATION, priority 2001, published 2003).

Test system: phase II enzyme synthesis
Settings: cultured murine hepatoma cells; Wilkinson and Clapper, 1997

| induction of phase II enzyme synthesis | SMILES |
| --- | --- |
| induce phase II enzyme synthesis | Cc1cc(C(C)(C)C)c(O)c(C(C)(C)C)c1 [BHT, butylated hydroxytoluene] |
| induce phase II enzyme synthesis | CC(C)(C)c1cc(O)ccc1O [TBHQ, tert-butylhydroquinone] |
| induce phase II enzyme synthesis | O=c1cc(-c2ccccc2)oc2ccc3ccccc3c12 [β-naphthoflavone] |

| SMILES | induction of phase II enzyme synthesis |
| --- | --- |
| COc1ccc(O)c(C(C)(C)C)c1 [BHA, butylated hydroxyanisole] | induce phase II enzyme synthesis |
